From US9617286B2, “Fungicide N-[(trisubstitutedsilyl)methyl]-carboxamide derivatives” (BAYER INTELLECTUAL PROPERTY GMBH, priority 2011, dated 2017)

Columns and labels:
[1] = tested on: Pyrenophora teres; test: In vivo preventive test on Pyrenophora teres (barley) - 2nd test; settings: 2nd test (acetone/tween/DMSO), 500 ppm of active ingredient, grading 14 days after contamination
Protocol: Barley plants (“Plaisant” variety), sown in starter cups on a 50/50 peat soil pozzolana substrate and grown at 22° C., are treated at the 1 leaf stage (10 cm height) by spraying with the active ingredient prepared as described above. Plants, used as controls, are treated with the mixture of acetone/tween/DMSO/water not containing the active material. After 24 hours, the plants are contaminated by spraying the leaves with an aqueous suspension of Pyrenophora teres spores (12 000 spores per mL). The spores are collected from a 12-day-old culture. The contaminated barley plants are incubated for 48 hours at 20° C. and at 100% relative humidity, and then for 12 days at 20° C. at 70-80% relative humidity. Grading (% of efficacy) is carried out 14 days after the contamination, in comparison with the control plants.

[2] = tested on: Septoria tritici; test: In vivo preventive test on Septoria tritici (wheat); settings: preventive spray, 500 ppm of active ingredient, grading 24 days after contamination
Protocol: Wheat plants (“Scipion” variety), sown in starter cups on a 50/50 peat soil pozzolana substrate and grown at 22° C., are treated at the 1 leaf stage (10 cm height) by spraying with the active ingredient prepared as described above. Plants, used as controls, are treated with the mixture of acetone/tween/DMSO/water not containing the active material. After 24 hours, the plants are contaminated by spraying the leaves with an aqueous suspension of cryopreserved Septoria tritici spores (500 000 spores per mL). The contaminated wheat plants are incubated for 72 hours at 18° C. and at 100% relative humidity, and then for 21 days at 90% relative humidity. Grading (% of efficacy) is carried out 24 days after the contamination, in comparison with the control plants.

[3] = tested on: Puccinia recondita; test: In vivo preventive test on Puccinia recondita (brown rust on wheat); settings: preventive spray, 500 ppm of active ingredient, grading 12 days after contamination
Protocol: Wheat plants (“Scipion” variety), sown in starter cups on a 50/50 peat soil pozzolana substrate and grown at 22° C., are treated at the 1 leaf stage (10 cm height) by spraying with the active ingredient prepared as described above. Plants, used as controls, are treated with the mixture of acetone/tween/DMSO/water not containing the active material. After 24 hours, the plants are contaminated by spraying the leaves with an aqueous suspension of Puccinia recondita spores (100 000 spores per mL). The spores are collected from an infected plant and are suspended in water containing 2.5 mL/L of Tween 80 at 10%. The contaminated wheat plants are incubated for 24 hours at 20° C. and at 100% relative humidity, and then for 10 days at 20° C. and at 70-80% relative humidity. Grading (% of efficacy) is carried out 12 days after the contamination, in comparison with the control plants.

[4] = log P by HPLC on reversed-phase column (C 18), EEC Directive 79/831 Annex V.A8; type: physicochemical; settings: 40° C., 0.1% aqueous formic acid and acetonitrile, linear gradient 10% to 90% acetonitrile
In short: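 Reversed-phase C18 HPLC at 40° C, 0.1% aqueous formic acid/acetonitrile gradient from 10% to 90% acetonitrile. log P derived from retention times by linear interpolation between unbranched alkan-2-ones (3–16 carbons) of known log P.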

[5] = tested on: Sphaerotheca fuliginea; test: In vivo preventive test on Sphaerotheca fuliginea (powdery mildew on cucurbits); settings: gherkin plants, preventive spray, 500 ppm of active ingredient, grading 12 days after contamination
Protocol: Gherkin plants (“Vert petit de Paris” variety), sown in starter cups on a 50/50 peat soil-pozzolana substrate and grown at 24° C., are treated at the Z11 cotyledon stage by spraying with the active ingredient prepared as described above. Plants, used as controls, are treated with the mixture of acetone/tween/DMSO/water not containing the active material. After 24 hours, the plants are contaminated by spraying the cotyledons with an aqueous suspension of Sphaerotheca fuliginea spores (100 000 spores per mL). The spores are collected from infected plants. The contaminated gherkin plants are incubated at about 20° C. and at 70-80% relative humidity. Grading (% of efficacy) is carried out 12 days after the contamination, in comparison with the control plants.

[6] = tested on: Alternaria solani; test: In vivo preventive test on Alternaria solani (tomato); settings: preventive spray, 500 ppm of active ingredient, evaluated 7 days after inoculation
Protocol: Solvent: 49 parts by weight of N,N-dimethylformamide Emulsifier: 1 part by weight of alkylaryl polyglycol ether To produce a suitable preparation of active compound, 1 part by weight of active compound is mixed with the stated amounts of solvent and emulsifier, and the concentrate is diluted with water to the desired concentration. To test for preventive activity, young plants are sprayed with the preparation of active compound at the stated rate of application. One day after this treatment, the plants are inoculated with an aqueous spore suspension of Alternaria solani. The plants remain for one day in an incubation cabinet at approximately 22° C. and a relative atmospheric humidity of 100%. Then the plants are placed in an incubation cabinet at approximately 20° C. and a relative atmospheric humidity of 96%.

[7] = tested on: Pyrenophora teres; test: In vivo preventive test on Pyrenophora teres (barley); settings: preventive spray (DMF/alkylaryl polyglycol ether), 500 ppm of active ingredient, evaluated 7-9 days after inoculation
In short: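 Young barley plants sprayed preventively with compound in DMF/emulsifier diluted in water, then inoculated one day later with aqueous P. teres spore suspension. Held 48 h at 22 °C and 100% relative humidity, then greenhouse at about 20 °C and 80% humidity.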

[8] = tested on: Leptosphaeria nodorum; test: In vivo preventive test on Leptosphaeria nodorum (wheat); settings: preventive spray, 500 ppm of active ingredient, evaluated 7-9 days after inoculation
Protocol: Solvent: 49 parts by weight of N,N-dimethylformamide Emulsifier: 1 part by weight of alkylaryl polyglycol ether To produce a suitable preparation of active compound, 1 part by weight of active compound is mixed with the stated amounts of solvent and emulsifier, and the concentrate is diluted with water to the desired concentration. To test for preventive activity, young plants are sprayed with a preparation of active compound at the stated rate of application. One day after this treatment, the plants are inoculated with an aqueous spore suspension of Leptosphaeria nodorum. The plants remain for 48 hours in an incubation cabinet at 22° C. and a relative atmospheric humidity of 100%. Then the plants are placed in a greenhouse at a temperature of approximately 22° C. and a relative atmospheric humidity of approximately 90%.

[9] = tested on: Alternaria brassicae; test: In vivo preventive test on Alternaria brassicae (leaf spot on radish); settings: preventive spray, 500 ppm of active ingredient, grading 6 days after contamination
Protocol: Radish plants (“Pernod Clair” variety), sown in starter cups on a 50/50 peat soil pozzolana substrate and grown at 17° C., are treated at the cotyledon stage by spraying with the active ingredient prepared as described above. Plants, used as controls, are treated with the mixture of acetone/tween/DMSO/water not containing the active material. After 24 hours, the plants are contaminated by spraying the cotyledons with an aqueous suspension of Alternaria brassicae spores (50 000 spores per mL). The spores are collected from a 15-day-old culture. The contaminated radish plants are incubated at 20° C. and at 100% relative humidity. Grading (% of efficacy) is carried out 6 days after the contamination, in comparison with the control plants.

[10] = tested on: Pyricularia oryzae; type: in vivo; settings: rice, preventive spray, 500 ppm of active ingredient, grading 6 days after contamination
[11] = tested on: Botrytis cinerea; test: In vivo preventive test on Botrytis cinerea (grey mould) - 2nd test; settings: gherkin plants, 2nd test (acetone/tween/DMSO), 500 ppm of active ingredient, grading 4 to 5 days after contamination
Protocol: Gherkin plants (“Vert petit de Paris” variety), sown in starter cups on a 50/50 peat soil pozzolana substrate and grown at 24° C., are treated at the Z11 cotyledon stage by spraying with the active ingredient prepared as described above. Plants, used as controls, are treated with the mixture of acetone/tween/DMSO/water not containing the active material. After 24 hours, the plants are contaminated by spraying the cotyledons with an aqueous suspension of cryopreserved Botrytis cinerea spores (50 000 spores per mL). The spores are suspended in a nutrient solution composed of 10 g/L of PDB, 50 g/L of D-Fructose, 2 g/L of NH4NO3 and 1 g/L of KH2PO4. The contaminated gherkin plants are incubated at 17° C. and at 90% relative humidity. Grading (% of efficacy) is carried out 4 to 5 days after the contamination, in comparison with the control plants.

[12] = tested on: Uromyces appendiculatus; test: In vivo preventive test on Uromyces appendiculatus (bean rust); settings: bean plants, preventive spray, 500 ppm of active ingredient, grading 11 days after contamination
Protocol: Bean plants (“Saxa” variety), sown in starter cups on a 50/50 peat soil pozzolana substrate and grown at 24° C., are treated at the 2 leaf stage (9 cm height) by spraying with the active ingredient prepared as described above. Plants, used as controls, are treated with the mixture of acetone/tween/DMSO/water not containing the active material. After 24 hours, the plants are contaminated by spraying the leaves with an aqueous suspension of Uromyces appendiculatus spores (150 000 spores per mL). The spores are collected from infected plants and are suspended in water containing 2.5 mL/L of Tween 80 at 10%. The contaminated bean plants are incubated for 24 hours at 20° C. and at 100% relative humidity, and then for 10 days at 20° C. and at 70-80% relative humidity. Grading (% of efficacy) is carried out 11 days after the contamination, in comparison with the control plants.

Structure (SMILES) | Efficacy [1] [%] | Efficacy [2] [%] | Efficacy [3] [%] | logP [4] | Efficacy [5] [%] | Efficacy [6] [%] | Efficacy [7] [%] | Efficacy [8] [%] | Efficacy [9] [%] | Efficacy [10] [%] | Efficacy [11] [%] | Efficacy [12] [%] | chromatographic logP [4]
CC1=C(C(=O)NC[Si](C)(C)c2ccccc2Cl)SCCO1 [Example 42] | 93 | 100 | 72 | 3.50 |  |  |  |  |  |  |  |  | 
C[Si](C)(CN(C(=O)c1cccnc1C(F)F)C1CC1)c1ccc(Cl)cc1Cl [Example 62] | 93 | 100 | 92 | 4.51 | 79 | 94 | 100 | 70 |  |  |  |  | 
C[Si](C)(CN(C(=O)c1cccnc1C(F)F)C1CC1)c1ccc(F)cc1Cl [Example 45] |  | 80 | 75 | 3.96 | 83 |  |  |  | 90 | 83 |  |  | 
C[Si](C)(CNC(=O)c1cccnc1C(F)F)c1ccccc1Cl [Example 22] |  | 96 | 100 | 3.06 | 78 |  |  |  |  |  | 92 | 96 | 
C[Si](C)(CN(C(=O)c1cccnc1Cl)C1CC1)c1ccc(F)cc1Cl [Example 46] |  |  |  | 4.06 |  |  |  |  |  | 92 |  |  | 
C[Si](C)(CNC(=O)c1cccnc1C(F)F)c1ccccc1 [Example 1, 2-(difluoromethyl)-N-{[dimethyl(phenyl)silyl]methyl}nicotinamide] | 79 | 100 | 88 |  | 98 | 95 | 90 |  |  |  | 89 | 100 | 2.71
